Laboratory results from patent US6677330B1, “Fluorides of 4-substituted piperidine derivatives” (priority 1999, dated 2004).
Where a name gives a salt, the structure may show the parent alone.

tested on: not given; assay: not given; conditions: not given

| melting point | SMILES |
| --- | --- |
| 139 to 141 °C | COc1cc2c(cc1OC)C(=O)C(F)(CC1CCN(Cc3cccc(C#N)c3)CC1)C2 (stereo not drawn) (as salt: hydrochloride) |
| 177 to 180 °C | COc1cc2c(cc1OC)C(=O)C(F)(CC1CCN(Cc3ccccn3)CC1)C2 (stereo not drawn) (as salt: hydrochloride) |
| 143 to 145 °C | COc1cc2c(cc1OC)C(=O)C(F)(CC1CCN(CC3OCCO3)CC1)C2 (stereo not drawn) (as salt: hydrochloride) |

target: T1, acetylcholinesterase (Rattus norvegicus, UniProt P37136); assay: biochemical; conditions: rat brain homogenate as enzyme source; acetylthiocholine substrate, DTNB, absorbance at 412 nm; read-out: IC50 (50% inhibitory concentration on acetylcholinesterase)
T1 construct: Using a rat brain homogenate as a source of acetylcholinesterase; from tissue; host or cells: rat brain homogenate
T1 sequence (P37136 32-614): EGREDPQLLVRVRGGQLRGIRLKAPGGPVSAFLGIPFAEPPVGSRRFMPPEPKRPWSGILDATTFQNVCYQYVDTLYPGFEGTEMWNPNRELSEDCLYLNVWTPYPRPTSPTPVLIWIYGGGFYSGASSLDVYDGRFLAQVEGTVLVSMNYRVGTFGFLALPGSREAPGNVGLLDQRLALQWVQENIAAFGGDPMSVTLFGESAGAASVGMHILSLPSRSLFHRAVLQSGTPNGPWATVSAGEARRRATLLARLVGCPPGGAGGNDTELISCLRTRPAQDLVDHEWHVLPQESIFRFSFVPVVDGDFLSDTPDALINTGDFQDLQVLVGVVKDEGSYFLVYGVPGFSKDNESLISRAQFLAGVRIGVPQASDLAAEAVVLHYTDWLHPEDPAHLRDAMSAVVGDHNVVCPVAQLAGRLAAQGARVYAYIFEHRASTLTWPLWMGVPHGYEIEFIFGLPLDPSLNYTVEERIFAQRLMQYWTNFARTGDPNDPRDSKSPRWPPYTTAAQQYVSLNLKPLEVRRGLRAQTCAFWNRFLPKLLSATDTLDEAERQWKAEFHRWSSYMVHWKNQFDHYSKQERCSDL
Experimental: Inhibitory effect on acetylcholinesterase in vitro
Using a rat brain homogenate as a source of acetylcholinesterase, the esterase activity was determined in accordance with the method of Ellman et al^1). Acethylthiocholine (as a substrate), a test compound and DTNB (5,5′-dithiobis(2-nitrobenzoic acid)) were added to the […] brain homogenate, and then incubated. Then, the resulting yellow product produced by the reaction of the resulting thiocholine with DTNB was determined for the change in absorbanceat 412 nm, to determine the acethylcholinesterase activity.
^1); Ellman. G. L., Courtney, K. D., Andres, V. and Featherstone, R. M., (1961), Biochem. Pharmacol., 7, 88-95.
The inhibitory effect of each test compound on acethylcholinesterase was determined in terms of 50% inhibitory concentration (IC50).
Each of the compounds was dissolved in physiological saline for use as a test sample.

| SMILES | IC50 |
| --- | --- |
| CCOc1cc2c(cc1OCC)C(=O)C(F)(CC1CCN(Cc3ccccc3)CC1)C2 (stereo not drawn) [Example 1, 1-Benezyl-4-[(5,6-diethoxy-2-flouro-1-indanon)-2-yl]methylpiperidine Hydrochloride] | 380 pM |
| CCCOc1cc2c(cc1OCCC)C(=O)C(F)(CC1CCN(Cc3ccccc3)CC1)C2 (stereo not drawn) [Example 17, 1-Benzyl-4-[[[5,6-di-(1-propyloxy)]-2-flouro-1-indanon-2-yl]methylpiperidine Hydrochloride] | 890 pM |
| COc1cc2c(cc1OC)C(=O)C(F)(CC1CCN(Cc3ccc(O)cc3)CC1)C2 (stereo not drawn) [Example 15, 4-[(5,6-Dimethoxy-2-flouro-1-indanon)-2-yl]methyl-1-(4-hydroxybenzyl)piperidine Hydrochloride] | 320 pM |
| COc1ccc2c(c1)CC(F)(CC1CCN(Cc3ccccc3)CC1)C2=O (stereo not drawn) [Example 12, 1-Benzyl-4-[(5-methoxy-2-flouro-1-indanon)-2-yl]methylpiperidine Hydrochloride] | 1200 pM |
| COc1cc2c(cc1OC)C(=O)C(F)(CC1CCN(Cc3cccc(F)c3)CC1)C2 (stereo not drawn) [Example 4, 4-[(5,6-Dimethoxy-2-flouro-indanon)-2-yl]methyl-1-(3-flourobenzyl)piperidine Hydrochloride] | 470 pM |
| COc1cc2c(cc1OC)C(=O)C(F)(CC1CCN(Cc3cccc([N+](=O)[O-])c3)CC1)C2 (stereo not drawn) [Example 11, 4-[(5,6-Dimethoxy-2-flouro-1-indanon)-2-yl]methyl-1-(3-nitrobenzyl)piperidine Hydrochloride] | 700 pM |
| COc1cc2c(cc1OC)C(=O)C(F)(CC1CCN(CC3CCCCC3)CC1)C2 (stereo not drawn) [Example 6, 1-(-Cyclohexylmethyl-4-[(5,6-dimethoxy-2-flouro-1-indanon)-2-yl]methylpiperidine Hydrochloride] | 1700 pM |
| COc1cc2c(cc1OC)C(=O)C(F)(CCCC1CCN(Cc3ccccc3)CC1)C2 (stereo not drawn) [Example 14, 1-Benzyl-4-[3-[5,6-dimethoxy-2-flouro-1-indanon)-2-yl]propyl]piperidine Hydrochloride] | 1400 pM |
| COc1cc2c(cc1OC)C(=O)C(F)(CC1CCN(Cc3cccc(C)c3)CC1)C2 (stereo not drawn) [Example 5, 4-[(5,6-Dimethoxy-2-flouro-1-indanon)-2-yl]methyl-1-(3-methylbenzyl)piperidine Hydrochoride] | 820 pM |
